Assay results published in patent US9108947B2, “Inhibitors of the Renal Outer Medullary Potassium channel” (Merck Sharp & Dohme Corp., priority 2011, dated 2015).
Where two headings read alike, the source gives them in different places.

Legend:
Kir1.1 (ROMK1) = Kir1.1 (ROMK1) (Homo sapiens (Human), UniProt P48048); test: Electrophysiology Assay (whole cell voltage clamp, IonWorks Quattro); format: cell-based
From the text: (§1) Several assays may be used to measure functional inhibition of the ROMK channel by compounds of the instant invention. One assay that can be used is an electrophysiology assay that measures the electrical current that is generated as potassium permeates through the channel. Another ROMK functional assay makes use of the ability of thallium to permeate through open ROMK channels and increase the fluorescence of a dye previously loaded into the cells. Under control conditions, cells loaded with dye and exposed to thallium-containing medium display a time-dependent increase in fluorescence, the rate of which depends on number of functional channels. When cells are incubated in the presence of a channel inhibitor, the increase in fluorescence is attenuated in a concentration-dependent manner, and IC50 values of inhibition by compounds can be accurately determined. This assay has been established with cell lines expressing either human, or rat ROMK channels, and operates in 384-well format.
Chinese hamster ovary cells stably expressing Kir1.1 channels were maintained in T-75 flasks in cell culture media in a humidified 10% CO2 incubator at 37° C. Prior to an experiment, Kir1.1 expression was induced by overnight incubation with 1 mM sodium butyrate. […] After centrifugation, the cell pellet was resuspended in approximately 4.0 ml of bath solution and placed in the IonWorks® instrument. The intracellular solution consisted of (in mM): 80 K gluconate, 40 KCl, 20 KF, 3.2 MgCl2, 3 EGTA, 5 Hepes, pH 7.4. Electrical access to the cytoplasm was achieved by perforation in 0.13 mg/ml amphotericin B for 4 minutes.
Voltage protocols and current recordings were performed using the IonWorks® HT software/hardware system. Currents were sampled at 1 kHz. No correction for liquid junction potentials was used. The test pulse, consisting of a 100 ms step to 0 mV from a holding potential of −70 mV, followed by a 100 ms voltage ramp from −70 mV to +70 mV, was applied before and after a 6 minutes compound incubation period. Test compounds were prepared by diluting DMSO stock solutions into the bath solution at 3× the final concentration and placed in the instrument in 96-well polypropylene plates. Current amplitudes were measured using the IonWorks® software.

hROMK (hKir1.1) = hROMK (hKir1.1) (Homo sapiens (Human), UniProt P48048); test: Thallium Flux Assay (ROMK channel functional thallium flux, FLIPR-Tetra); format: cell-based; settings: HEK293 cells stably expressing hROMK (hKir1.1); 30 min compound incubation
From the text: as §1
HEK293 cells stably expressing hROMK (hKir1.1) were grown at 37° C. in a 10% CO2 humidified incubator in complete growth media: Dulbecco's Modified Eagle Medium supplemented with non-essential amino acids, Penicillin/Streptomycin/Glutamine, G418 and FBS. At >80% confluency, the media was aspirated from the flask and the sample was rinsed with 10 ml Calcium/Magnesium-free PBS. […] To dislodge the cell, the side of the flask was gently banged with a hand. The cells were triturated completely and then transferred to 25 ml complete media. The sample was then centrifuged at 1,500 rpm for 6 minutes, followed by resuspension in complete growth media and then cell concentration was determined. […] Under ideal growth conditions and appropriate tissue culture practices, this cell line is stable for 40-45 passages.
• FluxOR™ Reagent (Component A) • FluxOR™ Assay Buffer (Component B)—10× Concentrate • PowerLoad™ Concentrate (Component C)—100× Concentrate • Probenecid (Component D) Lyophilized sample is kept at −20° C. Water soluble, 100× after solubilization in 1 ml water. […] Store at 4° C. • Thallium sulfate (Tl2SO4) Concentrate (Component G)—50 mM in water. […] Can be stored at room temperature • Stimulant Buffer (prepared at 5× final concentration in 1× FluxOR™Chloride-Free Buffer): 7.5 mM Thallium sulfate and 0.75 mM Potassium sulfate (to give a final assay concentration of 3 mM Thallium 0.3 mM Potassium). Store at 4° C. when not in use. If kept sterile, this solution is good for months. Assay Protocol—
The ROMK channel functional thallium flux assay is performed in 384 wells, using the FLIPR-Tetra instrument. HEK-hKir1.1 cells are seeded in Poly-D-Lysine microplates and kept in a 37° C.-10% CO2 incubator overnight. On the day of the experiment, the growth media is replaced with the FluxOR™ reagent loading buffer and incubated, protected from light, at ambient temperature (23-25° C.) for 90 min. The loading buffer is replaced with assay buffer±test compound followed by 30 min incubation at ambient temperature, where the Thallium/Potassium stimulant is added to the microplate.
• 1. Seed HEK-hKir1.1 cells (50 μl at 20,000 cells/well) in 384-well PDL coated Microplates • 2. Allow cells to adhere overnight in humidified 37° C./10% CO2 incubator • 3. Completely remove cell growth media from microplate and replace with 25 μl loading buffer • 4. Incubate Microplate at room temperature, protected form light, for 90 min • 5. Remove loading buffer and replace with 25 μl 1× Assay Buffer±test compound. • 6. Incubate microplate at room temperature, protected form light, for 30 min • 7. […] Excitation=400 nm, Emission=460 & 580 nm. Collect data for 10 min. Data Calculation—
The fluorescence intensity of wells containing 3 μM of a standard control ROMK inhibitor of the present invention is used to define the ROMK-sensitive component of thallium flux. Fluorescence in the presence of test compounds is normalized to control values to provide % fluorescence change.

[1] = Chinese hamster ovary cells stably expressing Kir1.1, block during voltage step to 0 mV, 6 minutes compound incubation, read-out: EP Assay IC50

hROMK (hKir1.1), sequence (P48048 whole entry): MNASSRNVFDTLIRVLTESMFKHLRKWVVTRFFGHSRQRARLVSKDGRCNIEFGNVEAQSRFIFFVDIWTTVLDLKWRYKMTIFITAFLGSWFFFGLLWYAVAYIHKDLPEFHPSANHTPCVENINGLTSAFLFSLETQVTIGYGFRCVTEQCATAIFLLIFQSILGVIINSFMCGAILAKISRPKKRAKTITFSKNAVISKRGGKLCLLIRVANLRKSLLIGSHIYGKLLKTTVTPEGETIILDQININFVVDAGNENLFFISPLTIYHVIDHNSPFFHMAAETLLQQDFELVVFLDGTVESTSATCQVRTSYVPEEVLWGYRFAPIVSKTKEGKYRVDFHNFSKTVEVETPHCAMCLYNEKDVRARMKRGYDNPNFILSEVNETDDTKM
Kir1.1 (ROMK1), sequence (P48048 whole entry, species assumed): as the sequence (P48048 whole entry) above

SMILES | IC50 (Kir1.1 (ROMK1); [1]) | IC50 (hROMK (hKir1.1)) | IC50 (Kir1.1 (ROMK1))
Cc1c([C@@H](O)CN2CCCC2CNCC(O)c2ccc(C#N)cn2)ccc2c1COC2=O (single isomer, unassigned) [Example 9B] | 254 nM | 290 nM | –
Cc1c([C@@H](O)CN2CCC(CNc3ccc(C#N)cn3)(c3ccccc3)C2)ccc2c1COC2=O (stereo partly drawn) [Example 22, 6-((1-((R)-2-Hydroxy-2-(4-methyl-1-oxo-1,3-dihydroisobenzofuran-5-yl)ethyl)-3-phenylpyrrolidin-3-yl)methylamino)nicotinonitrile] | 340 nM | 808 nM | –
Cc1c([C@@H](O)CNCC2(C)CCCN(C[C@H](O)c3ccc4c(c3C)COC4=O)C2)ccc2c1COC2=O (stereo partly drawn) [Example 8, 5-{(1R)-1-Hydroxy-2-[3-({[(2R)-2-hydroxy-2-(4-methyl-1-oxo-1,3-dihydro-2-benzofuran-5-yl)ethyl]amino}methyl)-3-methylpiperidin-1-yl]ethyl}-4-methyl-2-benzofuran-1(3H)-one] | – | 847 nM | –
Cc1c([C@@H](O)CN2CC[C@H](NCC(O)c3ccc(C#N)cn3)C2)ccc2c1COC2=O (stereo partly drawn) [Example 11, 6-(1-Hydroxy-2-((S)-1-((R)-2-hydroxy-2-(4-methyl-1-oxo-1,3-dihydroisobenzofuran-5-yl)ethyl)pyrrolidin-3-ylamino)ethyl)nicotinonitrile] | – | 648 nM | –
Cc1c([C@@H](O)CN2CC(CNS(=O)(=O)c3ccc(C#N)cc3)C2)ccc2c1COC2=O [Example 14, (R)-4-Cyano-N-((1-(2-hydroxy-2-(4-methyl-1-oxo-1,3-dihydroisobenzofuran-5-yl)ethyl)azetidin-3-yl)methyl)benzenesulfonamide] | 150 nM | 122 nM | –
Cc1c([C@@H](O)CNC2(C3CCN(C[C@H](O)c4ccc5c(c4C)COC5=O)C3)CCC2)ccc2c1COC2=O (stereo partly drawn) [Example 2, 5-{(1R)-1-Hydroxy-2-[3-(1-{[(2R)-2-hydroxy-2-(4-methyl-1-oxo-1,3-dihydro-2-benzofuran-5-yl)ethyl]amino}cyclobutyl)pyrrolidin-1-yl]ethyl}-4-methyl-2-benzofuran-1(3H)-one] | 420 nM | 172 nM | –
Cc1c([C@@H](O)CN2CCC(CNc3nccn4cnnc34)(c3ccccc3)C2)ccc2c1COC2=O (stereo partly drawn) [Example 24, 5-((1R)-2-(3-(([1,2,4]Triazolo[4,3-a]pyrazin-8-ylamino)methyl)-3-phenylpyrrolidin-1-yl)-1-hydroxyethyl)-4-methylisobenzofuran-1(3H)-one] | – | 893 nM | –
Cc1c([C@@H](O)CNC2CCCN(c3ccc(C#N)cn3)C2)ccc2c1COC2=O (stereo partly drawn) [Example 20, 6-(3-((R)-2-Hydroxy-2-(4-methyl-1-oxo-1,3-dihydroisobenzofuran-5-yl)ethylamino)piperidin-1-yl)nicotinonitrile] | – | 265 nM | 52 nM
Cc1c([C@@H](O)CN2CCC(C3(Nc4nccn5cnnc45)CCC3)C2)ccc2c1COC2=O (stereo partly drawn) [Example 23, 5-((1R)-2-(3-(1-([1,2,4]Triazolo[4,3-a]pyrazin-8-ylamino)cyclobutyl)pyrrolidin-1-yl)-1-hydroxyethyl)-4-methylisobenzofuran-1(3H)-one] | – | 401 nM | –
Cc1c([C@@H](O)CN2CCCC2CNCC(O)c2ccc(C#N)cn2)ccc2c1COC2=O (single isomer, unassigned) [Example 9A] | 321 nM | 188 nM | –
Cc1c([C@@H](O)CNC2C[C@H]3C[C@@H]2N(C[C@H](O)c2ccc4c(c2C)COC4=O)C3)ccc2c1COC2=O (single isomer, unassigned) [Example 17A] | 1420 nM | 500 nM | –
Cc1c(C(CO)NCC2CCCCN2C[C@H](O)c2ccc3c(c2C)COC3=O)ccc2c1COC2=O (stereo partly drawn) [Example 6, 5-{(1R)-1-Hydroxy-2-[2-({[2-hydroxy-1-(4-methyl-1-oxo-1,3-dihydro-2-benzofuran-5-yl)ethyl]amino}methyl)piperidin-1-yl]ethyl}-4-methyl-2-benzofuran-1(3H)-one] | 446 nM | 143 nM | –
Cc1c([C@@H](O)CN2CCCCC2CNCC(O)c2ccc(C#N)cn2)ccc2c1COC2=O (stereo partly drawn) [Example 13, 6-{1-Hydroxy-2-[({1-[(2R)-2-hydroxy-2-(4-methyl-1-oxo-1,3-dihydro-2-benzofuran-5-yl)ethyl]piperidin-2-yl}methyl)amino]ethyl}pyridine-3-carbonitrile] | 269 nM | 162 nM | –
Cc1c([C@@H](O)CNCC2CCCCN2C[C@H](O)c2ccc3c(c2C)COC3=O)ccc2c1COC2=O (stereo partly drawn) [Example 5, 5-{(1R)-1-Hydroxy-2-[2-({[(2R)-2-hydroxy-2-(4-methyl-1-oxo-1,3-dihydro-2-benzofuran-5-yl)ethyl]amino}methyl)piperidin-1-yl]ethyl}-4-methyl-2-benzofuran-1(3H)-one] | – | 82 nM | –
Cc1c([C@@H](O)CNCC2(C)CCN(C[C@H](O)c3ccc4c(c3C)COC4=O)C2)ccc2c1COC2=O (stereo partly drawn) [Example 7, 5-{(1R)-1-Hydroxy-2-[3-({[(2R)-2-hydroxy-2-(4-methyl-1-oxo-1,3-dihydro-2-benzofuran-5-yl)ethyl]amino}methyl)-3-methylpyrrolidin-1-yl]ethyl}-4-methyl-2-benzofuran-1(3H)-one] | – | 277 nM | –
Cc1c([C@@H](O)CN2CCCC2CNS(=O)(=O)c2ccc(-n3cnnn3)cc2)ccc2c1COC2=O (stereo partly drawn) [Example 19, N-((1-((R)-2-Hydroxy-2-(4-methyl-1-oxo-1,3-dihydroisobenzofuran-5-yl)ethyl)pyrrolidin-2-yl)methyl)-4-(1H-tetrazol-1-yl)benzenesulfonamide] | 245 nM | 206 nM | –
Cc1c([C@@H](O)CNC2C[C@H]3C[C@@H]2N(C[C@H](O)c2ccc4c(c2C)COC4=O)C3)ccc2c1COC2=O (single isomer, unassigned) [Example 17B] | – | 581 nM | –
Cc1c([C@@H](O)CNCC2CCCN2C[C@H](O)c2ccc3c(c2C)COC3=O)ccc2c1COC2=O (stereo partly drawn) [Example 3, 5-{(1R)-1-Hydroxy-2-[2-({[(2R)-2-hydroxy-2-(4-methyl-1-oxo-1,3-dihydro-2-benzofuran-5-yl)ethyl]amino}methyl)pyrrolidin-1-yl]ethyl}-4-methyl-2-benzofuran-1(3H)-one] | 510 nM | 176 nM | –
Cc1c([C@@H](O)CN2CC(CNS(=O)(=O)Cc3ccc(C#N)cc3)C2)ccc2c1COC2=O [Example 16, (R)-1-(4-Cyanophenyl)-N-((1-(2-hydroxy-2-(4-methyl-1-oxo-1,3-dihydroisobenzofuran-5-yl)ethyl)azetidin-3-yl)methyl)methanesulfonamide] | – | 1040 nM | –
